Test: plasma concentrations of COL-3 in humans
Format: in vivo
Conditions: dose of about 10 to about 20 mg/day

For `NC(=O)C1=C(O)C[C@@H]2C[C@@H]3Cc4cccc(O)c4C(=O)C3=C(O)[C@]2(O)C1=O` [COL-3, 6-demethyl-6-deoxy-4-de(dimethylamino)tetracycline], the plasma concentrations was “about 1.0 μg/ml”.
